The source of these data is ChEMBL document CHEMBL1139561, “Biaryl isoxazolinone antibacterial agents” (Bioorg Med Chem Lett, 2005).

SMILES strings stand for the structures. Values after ≈ are worked out from the molar mass of the structure shown. Where only a bound is given, the exact number is not on record here.

In one series the test system is Haemophilus influenzae. Description: Minimum inhibition concentration against Haemophilus influenzae strains. It is filed as functional.
Series [1] concerns Staphylococcus aureus. Description: Minimum inhibition concentration against Staphylococcus aureus strains in presence of 4% calf serum. It is filed as functional.
In series [2] the test system is Staphylococcus aureus. Description: Minimum inhibition concentration against Staphylococcus aureus strains in presence of 1% calf serum. It is filed as functional.
Series [3] concerns Staphylococcus aureus. Nature of the series: Minimum inhibition concentration against Staphylococcus aureus strains in presence of 32% calf serum. The format is functional.
Series [4] relates to Staphylococcus aureus. Description: Minimum inhibition concentration against Staphylococcus aureus strains in presence of 8% calf serum. The format is functional.
Series [5] has as its system Staphylococcus aureus. Description: Minimum inhibition concentration against Staphylococcus aureus strains in presence of 0.5% calf serum. It is filed as functional.
A short description of series [6]: Protective dose against Staphylococcus aureus in mice after 8 days of oral b.i.d. administration at 1 and 5 hr per interval (n=10). The settings on record: read-out: PD50. It is filed as functional.
Series [7] in a line: Maximum serum concentration in rat was determined. It is filed as ADME, organism-based.
The nature of series [8]: Maximum serum concentration in mouse was determined. The format is ADME, organism-based.
Series [9] can be described thus: Area under curve concentration in mouse was determined. The format is ADME. The note with it: in vivo.
Series [10] in a line: Half life for compound in rat was determined. The note with it: in vivo. The format is ADME.
Series [11] can be described thus: Half life for compound in mouse was determined. The format is ADME. The note with it: in vivo.
Series [12] relates to Staphylococcus aureus. Nature of the series: Minimum inhibition concentration against Staphylococcus aureus strains in presence of 16% calf serum. It is filed as functional.
The subject of series [13] is Staphylococcus aureus. Description: Minimum inhibition concentration against Staphylococcus aureus strains in presence of 2% calf serum. It is filed as functional.
In series [14] the test system is Staphylococcus aureus. Nature of the series: Minimum inhibition concentration against Staphylococcus aureus strains in presence of >64% calf serum. It is filed as functional.

On to `CC(=O)NCn1cc(-c2ccc(C3=CCSCC3)cc2)c(=O)o1`, for which the figures for the MIC with Haemophilus influenzae and in the series on Staphylococcus aureus [1] were 32 µg/mL (≈ 96.8 µM) and 1 µg/mL, respectively.
For the molecule `CC(=O)NCn1cc(-c2ccc(-c3sccc3C=O)cc2)c(=O)o1`, the MIC against Haemophilus influenzae is 64 µg/mL (≈ 187 µM); in the series on Staphylococcus aureus [2] it was 0.5 µg/mL.
Turning to `CC(=O)NCn1cc(-c2ccc(-c3cccc4ccccc34)cc2)c(=O)o1`, the MIC against Haemophilus influenzae is over 32 µg/mL; in the series on Staphylococcus aureus [3] it was 1 µg/mL; in the series on Staphylococcus aureus [3] (Staphylococcus aureus), 1 µg/mL.
For `CC(=O)NCn1cc(-c2ccc(C3=CCOCC3)cc2)c(=O)o1`, the MIC worked out at 4 µg/mL (≈ 12.7 µM) with Haemophilus influenzae and 0.25 µg/mL in the series with Staphylococcus aureus [2].
Regarding `CC(=O)NCn1cc(-c2ccc(C3=CCNCC3)cc2)c(=O)o1`, the results for the MIC in the series with Haemophilus influenzae and in the series with Staphylococcus aureus [4] were 16 µg/mL (≈ 51.1 µM) and 8 µg/mL, respectively.
As to `CC(=O)NCn1cc(-c2ccc(C3=CCN(C(=O)CO)CC3)cc2)c(=O)o1`, the MIC came out at 2 µg/mL (≈ 5.39 µM) in the series on Haemophilus influenzae and 0.25 µg/mL in the series on Staphylococcus aureus [5]. In series [6], the ED50 is 4 mg/kg/day. The Cmax in series [7] is 1900 ng/mL; in series [8], 22900 ng/mL. In addition, the AUC in series [9] was determined as 16.9 µg/h/mL. For the same molecule, the half-life is 36 min in [10] and 23.5 min in [11].
As to `CC(=O)NCn1cc(-c2ccc(C3CCN(C(=O)OC(C)(C)C)CC3)cc2)c(=O)o1`, the MIC in the series with Haemophilus influenzae amounted to 32 µg/mL (≈ 77 µM); in the series on Staphylococcus aureus [12], 8 µg/mL.
In the case of `CC(=O)NCn1cc(-c2ccc(C3=CCN(C(=O)OC(C)(C)C)CC3)cc2)c(=O)o1`, the MIC was over 64 µg/mL against Haemophilus influenzae and 8 µg/mL in the series with Staphylococcus aureus [3] (Staphylococcus aureus).
For the molecule `CC(=O)NCn1cc(-c2ccc(C3CCNCC3)cc2)c(=O)o1`, the figures for the MIC against Haemophilus influenzae and in the series on Staphylococcus aureus [12] were 32 µg/mL (≈ 101 µM) and 32 µg/mL, respectively.
As for `CC(=O)NCn1cc(-c2ccc(-c3ccc(Cl)s3)cc2)c(=O)o1`, the MIC in the series with Haemophilus influenzae turned out to be 4 µg/mL (≈ 11.5 µM); in the series with Staphylococcus aureus [4], 0.06 µg/mL.
Take `CC(=O)NCn1cc(-c2ccc(C3CCN(C(=O)CO)CC3)cc2)c(=O)o1`: the MIC in the series with Haemophilus influenzae was 16 µg/mL (≈ 42.8 µM); in the series on Staphylococcus aureus [13], 1 µg/mL. For the same molecule, the ED50 in series [6] was over 3.5 mg/kg/day.
For `CC(=O)NCn1cc(-c2ccc(C3=CC[S+]([O-])CC3)cc2)c(=O)o1` (stereo not drawn), the MIC in the series with Haemophilus influenzae amounted to 2 µg/mL (≈ 5.77 µM); with Staphylococcus aureus [2], 0.5 µg/mL. In addition, in [6], the ED50 is 5.6 mg/kg/day. The molecule further had a Cmax in series [8] of 8300 ng/mL. The AUC in series [9] came to 5.5 µg/h/mL. For the same molecule, the half-life in series [11] was 22.2 min.
On to `CC(=O)NCn1cc(-c2ccc(C3=CCN(C(=N)N)CC3)cc2)c(=O)o1`, for which the MIC in the series with Haemophilus influenzae was found to be 32 µg/mL (≈ 90 µM); in the series with Staphylococcus aureus [12], 8 µg/mL.
Regarding `CC(=O)NCn1cc(-c2ccc(C3=CCS(=O)(=O)CC3)cc2)c(=O)o1`, the MIC in the series with Haemophilus influenzae amounted to 4 µg/mL (≈ 11 µM); in the series with Staphylococcus aureus [2], 0.5 µg/mL. Besides, the ED50 in series [6] was 4 mg/kg/day. In series [8], this molecule displayed a maximum concentration (Cmax) of 17700 ng/mL. Moreover, the AUC in series [9] worked out at 19.4 µg/h/mL. This molecule also displayed a half-life in [11] of 12.2 min.
`CC(=O)NCn1cc(-c2ccc(-c3ccco3)cc2)c(=O)o1`: the MIC against Haemophilus influenzae was 16 µg/mL (≈ 53.6 µM); in the series on Staphylococcus aureus [3] (Staphylococcus aureus), 1 µg/mL.
`CC(=O)NCn1cc(-c2ccc(-c3ccc(O)cc3)cc2)c(=O)o1`: the figures for the MIC in the series on Haemophilus influenzae and with Staphylococcus aureus [13] were 8 µg/mL (≈ 24.7 µM) and 1 µg/mL, respectively.
Turning to `CC(=O)NCn1cc(-c2ccc(-c3ccc(F)c(C(=O)O)c3)cc2)c(=O)o1`, the MIC against Haemophilus influenzae was determined as 64 µg/mL (≈ 173 µM); in the series on Staphylococcus aureus [14], 32 µg/mL.
With `CC(=O)NCn1cc(-c2ccc(-c3cc(C)cs3)cc2)c(=O)o1`, the results for the MIC in the series with Haemophilus influenzae and in the series with Staphylococcus aureus [1] were over 64 µg/mL and 0.25 µg/mL, respectively.
For `CC(=O)NCn1cc(-c2ccc(-c3ccc(F)cc3F)cc2)c(=O)o1`, in that order: 4 µg/mL (≈ 11.6 µM) and 0.125 µg/mL.
In the case of `CC(=O)NCn1cc(-c2ccc(-c3ccncc3)cc2)c(=O)o1`, the MIC against Haemophilus influenzae was determined as 2 µg/mL (≈ 6.47 µM); with Staphylococcus aureus [5], 0.06 µg/mL. For the same molecule, the ED50 in series [6] worked out at 8.9 mg/kg/day. Further, in series [8], the highest level (Cmax) was 17700 ng/mL. In addition, the AUC in series [9] was 56 µg/h/mL. Further, the half-life in [11] turned out to be 203 min.
Consider `COc1cccc(-c2ccc(-c3cn(CNC(C)=O)oc3=O)cc2)c1`, for which the MIC was over 64 µg/mL in the series on Haemophilus influenzae and 0.06 µg/mL in the series on Staphylococcus aureus [2].
Consider `CC(=O)NCn1cc(-c2ccc(-c3ccc(OC(F)(F)F)cc3)cc2)c(=O)o1`, for which the values for the MIC in the series with Haemophilus influenzae and in the series with Staphylococcus aureus [12] were over 32 µg/mL and 0.5 µg/mL, respectively.
For `CC(=O)NCn1cc(-c2ccc(-c3ccccn3)cc2)c(=O)o1`, the results for the MIC against Haemophilus influenzae and with Staphylococcus aureus [13] were 8 µg/mL (≈ 25.9 µM) and 1 µg/mL, respectively.
As for `COc1ccc(-c2ccc(-c3cn(CNC(C)=O)oc3=O)cc2)c(OC)c1`, the MIC is over 32 µg/mL against Haemophilus influenzae and 2 µg/mL with Staphylococcus aureus [4].
Take `CC(=O)NCn1cc(-c2ccc(-c3cncs3)cc2)c(=O)o1`: the MIC came to 4 µg/mL (≈ 12.7 µM) against Haemophilus influenzae and 0.5 µg/mL in the series on Staphylococcus aureus [1].
For the molecule `CC(=O)NCn1cc(-c2ccc(-c3cccnc3)cc2)c(=O)o1`, the MIC with Haemophilus influenzae came to 2 µg/mL (≈ 6.47 µM); in the series on Staphylococcus aureus [1], 0.5 µg/mL. Besides, the ED50 in [6] is 10 mg/kg/day. The same molecule had a Cmax in series [8] of 15300 ng/mL. For the same molecule, in series [9], the AUC was found to be 41.1 µg/h/mL. Besides, in [11], the half-life is 86.7 min.
On to `CC(=O)NCn1cc(-c2ccc(-c3c(C)noc3C)cc2)c(=O)o1`, for which the MIC with Haemophilus influenzae is over 64 µg/mL; in the series with Staphylococcus aureus [4] it was 2 µg/mL.
